Measurements as given in patent US5556942A, “Glutathione S-transferase-activated compounds” (priority 1994, dated 1996).

Legend:
[1] = target: T1, recombinant human GST M1a-1a (Homo sapiens, UniProt P09488); assay: Decomposition of compound by GST M1a-1a followed by HPLC; type: biochemical; conditions: for decomposition rate versus background, M1a: 37°; for IN VITRO HALF LIVES, M1a-1a: 3 μM recombinant human GST M1a-1a, compound 300 μM, disappearance by HPLC
T1 sequence (P09488 2-218 limits assumed): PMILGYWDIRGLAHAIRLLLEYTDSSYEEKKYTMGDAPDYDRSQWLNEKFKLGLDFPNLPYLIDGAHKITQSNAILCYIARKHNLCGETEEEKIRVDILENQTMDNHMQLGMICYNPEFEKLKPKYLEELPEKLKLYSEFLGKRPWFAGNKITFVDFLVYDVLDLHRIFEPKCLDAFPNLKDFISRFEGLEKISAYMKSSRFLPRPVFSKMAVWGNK
Method: (§1) The compound to be tested was dissolved in 0.2M phosphate buffer and a solution of GST was added. The final concentration was 0.3 mM test compound and 0.006 mM GST, pH 7.3 for TER 230; for TER 231 GST was 0,003 mM, pH 7.1. The solution was incubated at 37°. Decomposition was followed by HPLC. The column was J. T. Baker C18 250×4.6 mm with 5μ particles. The A buffer was 0.05M ammonium acetate, pH 5.5; 5% CH3 CN; B buffer was 70% CH3 CN in A.
(§2) The column was run with a gradient of 20%-50% B over 15 min. then to 100% B in 3 mins; then back to 20% B over 6 mins. A 10 μL sample was injected and the flow rate was 1 ml/min. Aliquots were removed and catalytic decomposition was quenched by addition of acetic acid. Overnight HPLC utilizing an autosampler were used; the rates of decomposition were calculated by measuring the rate of disappearance of the peak versus an internal standard which was 0.06 mM of an inert peptide marker.
(§3) In addition, half-lives were determined as described above using 3 μM recombinant human GST P1-1, A1-1 or M1a-1a starting with a concentration of the compound to be tested at 300 μM and monitoring disappearance using HPLC.

[2] = target: recombinant human GST P1-1 (Homo sapiens, UniProt P09211); assay: Decomposition of compound by GST P1-1 followed by HPLC; type: biochemical; conditions: for decomposition rate versus background, P1: 37°; for IN VITRO HALF LIVES, P1-1: 3 μM recombinant human GST P1-1, compound 300 μM, disappearance by HPLC
Method: as §1, §2, §3

[3] = target: T2, recombinant human GST A1-1 (Homo sapiens, UniProt P08263); assay: Decomposition of compound by GST A1-1 followed by HPLC; type: biochemical; conditions: for decomposition rate versus background, A1: 37°; for IN VITRO HALF LIVES, A1-1: 3 μM recombinant human GST A1-1, compound 300 μM, disappearance by HPLC
T2 sequence (P08263 1-222): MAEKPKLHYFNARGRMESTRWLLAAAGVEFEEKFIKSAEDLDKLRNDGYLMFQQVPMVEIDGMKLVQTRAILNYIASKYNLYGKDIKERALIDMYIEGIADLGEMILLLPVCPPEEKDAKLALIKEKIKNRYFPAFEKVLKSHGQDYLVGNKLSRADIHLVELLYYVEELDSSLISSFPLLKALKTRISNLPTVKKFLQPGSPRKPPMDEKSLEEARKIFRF
Method: as §1, §2, §3

[4] = test system: HT29 human cancer cells; conditions: preliminary results
[5] = test system: human GST P1-1, A1-1, M1a-1a; conditions: from in vitro half lives with 3 μM GST, 300 μM compound
Method: as §3

[6] = no GST; compound 300 μM; disappearance by HPLC
Method: as §1, §2, §3

[7] = test system: MX-1 tumor; conditions: single intraperitoneal injection, 300 mg/kg or 400 mg/kg, monitored one month; FIG. 5
Method: The prodrugs of the invention were tested in Balb/C nu/nv mice. The mice were implanted subcutaneously with MX-1 tumor pieces and then treated with a single intraperitoneal injection once tumors reached an average of 100 mm^3 (which is at approximately day 18 post-implant). Tumor growth and body weight were monitored for one month following treatment. […] In FIG. 5, the squares represent controls; circles represent 300 mg/kg of TER 286; triangles represent 400 mg/kg of the same drug. The points shown are the mean ±SEM of 5-7 mice per group.

[8] = test system: GM-CFU in femoral bone marrow
Method: In the assay, B6D2F1 mice were treated with various doses of TER 286 intraperitoneally either as a single injection or as five daily injections. Femoral bone marrows were harvested 24 hours later and assayed for GM-CFU by the method of East, C. J. et al. Cancer Chemother Pharmacol (1992) 31:123-126.

[9] = test system: MCF-7 cells transfected with GST P1-1; conditions: for sensitization of cells with high P1-1 levels compared to control-vector cells: 2 hours treatment, assayed on day 5, FIGS. 4a-4c
[10] = test system: MCF-7 cells selected for cyclophosphamide resistance (MCF-CTX); conditions: standard clonogenic assay
Source text: Also tested were MCF-7 cells selected for cyclophosphamide resistance (MCF-CTX) and its wild-type counterpart.

[11] = 0.3 mM TER 230, 0.006 mM GST, pH 7.3, 0.2M phosphate buffer, FIG. 1
[12] = TER 286 similarly tested, FIG. 3
[13] = 0.3 mM TER 231, GST 0,003 mM, pH 7.1, 0.2M phosphate buffer, FIG. 2

Chain of recombinant human GST P1-1 (P09211 2-210 limits assumed): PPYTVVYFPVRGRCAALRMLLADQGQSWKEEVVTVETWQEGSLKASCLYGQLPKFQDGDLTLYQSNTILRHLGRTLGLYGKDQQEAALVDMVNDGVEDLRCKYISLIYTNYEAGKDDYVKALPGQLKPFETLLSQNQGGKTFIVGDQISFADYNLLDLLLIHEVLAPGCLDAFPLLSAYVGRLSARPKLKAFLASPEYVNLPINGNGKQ

Row | Molecule | toxicity to HT29 cells [4] | IN VITRO HALF LIVES, M1a-1a [1] | IN VITRO HALF LIVES, P1-1 [2] | IN VITRO HALF LIVES, A1-1 [3] | Selectivity (GST isoenzyme that selectively cleaves the prodrug) [5] | IN VITRO HALF LIVES, CONTROL [6] | sensitization of cells with high P1-1 levels compared to control-vector cells [9] | also measured
1 | CCN(CC)P(=O)(OCCS(=O)(=O)CC(NC(=O)CCC(N)C(=O)O)C(=O)NCC(=O)O)N(CC)CC (stereo not drawn) [TER 230, γ-glutamyl-α-aminopropionyl (β-(2-ethyl-N,N,N,N,tetraethylphosphoramidate)sulfonyl)-glycine] | is not |  |  |  |  |  |  | decomposition rate versus background, M1a [1, 11]: about 4 times faster than background; decomposition rate versus background, P1 [2, 11]: about 2 times faster than background; decomposition rate versus background, A1 [3, 11]: does not accelerate the decomposition of TER 230 above background
2 | γ-glutamyl-α-Amino-β-((2-ethyl-N,N,N,N-tetra(2'-chloro)eth ylphosphoroamidate)sulfonyl)propionylphenylalanine [TER 303] |  | 200 min | 310 min | 45 min | selectively cleaved by A1-1 |  |  | 
3 | NC(CCC(=O)NC(CS(=O)(=O)CCOP(=O)(N(CCCl)CCCl)N(CCCl)CCCl)C(=O)N[C@@H](C(=O)O)c1ccccc1)C(=O)O (stereo partly drawn) [TER 286, γ-glutamyl-α-Amino-β-((2-ethyl-N,N,N,N-tetra(2'-chloro) ethylphosphoroamidate)sulfonyl)propionyl-(R)-(-)phenylglycine] |  | 225 min | 50 min | 65 min | selectively cleaved by P1-1 and A1-1 | 275 min | 4 fold | acceleration of cleavage versus background, M1a-1a [1, 12]: negligible acceleration of cleavage; acceleration of cleavage versus background, P1-1 [2, 12]: roughly six; acceleration of cleavage versus background, A1-1 [3, 12]: roughly six; tumor volume in treated mice compared to controls [7]: greatly diminished; GM-CFU, % of controls ([8]; mouse, in vivo): up to 180%; optimum dosage range for bone marrow GM-CFU ([8]; mouse, in vivo): 100 to 200 mg/kg; factor by which CTX-resistant cells are more sensitive than CTX-sensitive cells [10]: 1.8
4 | γ-glutamyl-α-Amino-β-(1-phenyl, (2'ethyl-N,N,N,N-tetra(2'-chloro)ethylphosphoroamidate)sulfonyl) propionyl glycine [TER 296] |  | 50 min | 2.5 min | 200 min | selectively cleaved by P1-1 |  |  | 
5 | N[C@@H](Cc1ccc(N(CCCl)CCCl)cc1)C(=O)O [melphalan, reference compound] |  |  |  |  |  |  |  | toxicity with respect to bone marrow (GM-CFU) ([8]; FIG. 7): extreme toxicity
6 | NC(CCC(=O)NC(CS(=O)(=O)CCOP(=O)(N(CCCl)CCCl)N(CCCl)CCCl)C(=O)NCC(=O)O)C(=O)O (stereo not drawn) [TER 231, γ-Glutamyl-α-Aminopropionyl (β-(2-ethyl-N,N,N,N-tetra(2'-chloro)ethylphosphoroamidate)sulfonyl)gl ycine] | toxic to these cells | 25 min | 110 min | 110 min | by M1a-1a | 350 min | 2 fold | decomposition rate versus background, M1a [1, 13]: about 12 times faster than background; decomposition rate versus background, P1 [2, 13]: 5 times faster than background; decomposition rate versus background, A1 [3, 13]: 5 times faster than background; sensitivity of π-transfected MCF-7 cells versus untransfected cells ([9]; π-transfect with elevated P1 GST): more sensitive
